Data from ChEMBL document CHEMBL1821572, “Discovery of a novel series of selective HCN1 blockers” (Bioorg Med Chem Lett, 2011).

What was measured:
Homo sapiens = species on record: Homo sapiens; assay: Selectivity for human HCN1 over human HCN4
[1] = biological target: T1, Potassium/sodium hyperpolarization-activated cyclic nucleotide-gated channel 1 (Homo sapiens, UniProt O60741); assay: Inhibition of human HCN1 heterologously expressed in HEK-293 cells after 30 mins by VIPR assay; type: cell-based, HEK293
T1 sequence (O60741 whole entry): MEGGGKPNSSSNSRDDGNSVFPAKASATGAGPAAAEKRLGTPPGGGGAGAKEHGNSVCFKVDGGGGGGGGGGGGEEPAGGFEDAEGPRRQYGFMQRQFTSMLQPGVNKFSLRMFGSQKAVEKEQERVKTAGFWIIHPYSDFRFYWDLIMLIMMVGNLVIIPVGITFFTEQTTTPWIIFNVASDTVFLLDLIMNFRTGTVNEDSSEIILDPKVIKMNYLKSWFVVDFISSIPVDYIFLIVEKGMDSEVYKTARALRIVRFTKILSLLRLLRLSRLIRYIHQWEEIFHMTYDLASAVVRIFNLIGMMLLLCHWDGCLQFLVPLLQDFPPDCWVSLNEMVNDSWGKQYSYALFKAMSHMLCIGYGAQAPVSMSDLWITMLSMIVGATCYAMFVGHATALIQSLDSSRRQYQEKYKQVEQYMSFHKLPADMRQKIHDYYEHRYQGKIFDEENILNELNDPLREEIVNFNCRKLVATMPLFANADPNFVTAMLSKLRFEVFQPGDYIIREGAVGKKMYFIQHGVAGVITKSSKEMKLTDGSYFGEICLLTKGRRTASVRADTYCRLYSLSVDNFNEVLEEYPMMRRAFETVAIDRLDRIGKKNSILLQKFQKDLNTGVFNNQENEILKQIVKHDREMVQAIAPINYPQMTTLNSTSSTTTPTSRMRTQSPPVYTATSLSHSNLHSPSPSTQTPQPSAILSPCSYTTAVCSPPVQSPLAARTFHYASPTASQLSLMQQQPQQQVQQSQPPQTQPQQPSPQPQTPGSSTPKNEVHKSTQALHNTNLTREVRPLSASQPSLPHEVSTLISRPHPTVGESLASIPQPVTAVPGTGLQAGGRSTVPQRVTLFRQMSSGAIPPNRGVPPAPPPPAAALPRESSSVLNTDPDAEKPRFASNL

[2] = Half life in human liver microsomes; type: ADME, Microsome
[3] = biological target: T2, Potassium/sodium hyperpolarization-activated cyclic nucleotide-gated channel 2 (Homo sapiens, UniProt Q9UL51); assay: Inhibition of human HCN2 heterologously expressed in HEK-293 cells after 30 mins by VIPR assay; type: cell-based, HEK293
T2 sequence (Q9UL51 whole entry): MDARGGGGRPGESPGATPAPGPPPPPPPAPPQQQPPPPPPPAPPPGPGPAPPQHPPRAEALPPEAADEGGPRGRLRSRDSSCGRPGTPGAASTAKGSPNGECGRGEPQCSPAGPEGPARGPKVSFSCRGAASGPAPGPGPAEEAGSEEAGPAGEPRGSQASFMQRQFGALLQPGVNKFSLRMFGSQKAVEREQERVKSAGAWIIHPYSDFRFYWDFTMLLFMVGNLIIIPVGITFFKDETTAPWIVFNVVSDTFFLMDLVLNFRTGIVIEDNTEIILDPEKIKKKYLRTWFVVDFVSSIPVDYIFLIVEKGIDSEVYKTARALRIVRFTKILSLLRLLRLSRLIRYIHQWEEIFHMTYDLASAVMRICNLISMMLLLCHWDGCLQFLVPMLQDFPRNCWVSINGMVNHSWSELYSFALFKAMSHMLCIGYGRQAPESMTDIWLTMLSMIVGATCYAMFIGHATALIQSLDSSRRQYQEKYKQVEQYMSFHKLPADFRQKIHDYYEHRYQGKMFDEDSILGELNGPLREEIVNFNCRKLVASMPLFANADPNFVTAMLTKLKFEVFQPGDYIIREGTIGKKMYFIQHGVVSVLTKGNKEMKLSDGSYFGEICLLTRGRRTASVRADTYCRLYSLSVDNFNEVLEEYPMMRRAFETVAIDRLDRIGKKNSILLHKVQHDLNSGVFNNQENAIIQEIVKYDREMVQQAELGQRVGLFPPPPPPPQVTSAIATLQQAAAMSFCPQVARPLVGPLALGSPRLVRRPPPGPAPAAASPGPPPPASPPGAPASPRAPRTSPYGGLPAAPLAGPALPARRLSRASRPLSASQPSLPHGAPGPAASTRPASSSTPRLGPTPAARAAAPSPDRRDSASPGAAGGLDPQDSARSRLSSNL

[4] = biological target: T3, Potassium/sodium hyperpolarization-activated cyclic nucleotide-gated channel 3 (Homo sapiens, UniProt Q9P1Z3); assay: Inhibition of human HCN3 heterologously expressed in HEK-293 cells after 30 mins by VIPR assay; type: cell-based, HEK293
T3 sequence (Q9P1Z3 whole entry): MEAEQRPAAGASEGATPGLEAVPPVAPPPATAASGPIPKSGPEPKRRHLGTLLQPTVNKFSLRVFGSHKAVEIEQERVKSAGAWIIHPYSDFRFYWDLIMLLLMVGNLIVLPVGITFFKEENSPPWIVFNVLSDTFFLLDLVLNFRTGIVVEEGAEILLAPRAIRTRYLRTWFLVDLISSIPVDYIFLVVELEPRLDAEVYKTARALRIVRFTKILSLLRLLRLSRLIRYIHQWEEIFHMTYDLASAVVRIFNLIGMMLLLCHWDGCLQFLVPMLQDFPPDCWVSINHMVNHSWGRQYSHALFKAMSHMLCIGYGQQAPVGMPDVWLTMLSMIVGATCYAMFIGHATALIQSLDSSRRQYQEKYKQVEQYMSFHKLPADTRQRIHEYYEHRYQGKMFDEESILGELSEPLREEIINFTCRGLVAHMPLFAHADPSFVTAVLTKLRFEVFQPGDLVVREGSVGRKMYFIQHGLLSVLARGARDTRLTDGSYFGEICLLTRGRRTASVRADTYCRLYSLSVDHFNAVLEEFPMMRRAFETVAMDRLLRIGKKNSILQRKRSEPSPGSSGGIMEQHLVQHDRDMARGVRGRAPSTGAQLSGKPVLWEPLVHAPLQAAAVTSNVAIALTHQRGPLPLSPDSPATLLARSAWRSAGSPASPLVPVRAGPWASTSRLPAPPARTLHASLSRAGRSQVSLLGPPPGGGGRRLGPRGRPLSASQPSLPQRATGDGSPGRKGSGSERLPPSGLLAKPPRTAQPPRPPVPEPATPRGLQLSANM

Mus musculus [5] = assay: Antiallodynic activity in ip dosed C57BL/6 mouse spared-nerve injury model assessed as reduction of tactile allodynia after 60 mins; type: functional; details: C57BL/6, ip, 1 h
Mus musculus [6] = species on record: Mus musculus; assay: Toxicity in C57BL/6 mouse assessed as induction of bradycardia after 50 mins by ECG study; type: organism-based; details: in vivo

CCOc1ccccc1C(=O)NCC1(N2CCNCC2)CCCCC1
Selectivity ratio (Homo sapiens): 10 | IC50 [1]: 0.398 µM | half-life [2]: 3.92 h | IC50 [3]: 5.01 µM | IC50 [4]: 3.16 µM | ED50 (Mus musculus [5]): 6 mg/kg | ED20 (Mus musculus [6]): 25 mg/kg
